Experimental data: patent US9486425B2 (NESTEC S.A., priority 2012, dated 2016)

Assays:
Nrf2 = Nrf2 reporter assay (ARE-luciferase, AREc32 cells); type: cell-based; settings: 24 h, dose range 0 to 200 μM (FIG. 3)
Procedure: Activation of Nrf2 was measured using an Nrf2 reporter assay. This assay is based on the AREc32 cell line, from CRX biosciences (Dundee, Scotland), a stably transfected MCF7 (breast adenocarcinoma) cell line that contains a luciferase gene construct under the control of the ARE. […] Luciferase activity is determined using a luciferase kit form Promega (Madison, Wis.). The luciferase activity is proportional to the activation of Nrf2.
For each run the luciferase activities, measured in Relative Light Units (RLU), of all the wells were normalized with the mean of the luciferase activity of the cells only of all the plates. Among all the samples tested the normalization procedure was found not to affect the data and this observation permits the comparison of samples measured in different runs.
For each sample the Nrf2 activation was calculated as follows: […]
The luciferase content per sample allows a semi quantification of the Nrf2 activation by reflecting the amount of the Nrf2 activating molecule. […]

AREc32 cells = assay: AREc32 cell viability (ATP quantification, Cell Titer-Glo); type: cell-based; settings: 24 h
Procedure: To determine the Nrf2 activation the samples were tested on AREc32 cells (seeded in 96 well plates) using 10 independent dilutions (1/2, 1/4, 1/6, 1/10, 1/15, 1/20, 1/25, 1/30, 1/40 and 1/50) and incubated for 24 hours at 37° C. in a 5% CO2/air incubator. The luciferase activity and the cell viability (ATP measurements) were determined using the Luciferase and Cell Titer-Glo kits from Promega.
The cell viability was also measured using a cell Titer-Glo kit (ATP quantification).

Heme oxygenase 1 (HO-1) = assay: mRNA expression in hepatocytes (qPCR): heme oxygenase 1; type: cell-based; settings: rat hepatocytes, 24 h, dose range (FIG. 5)
Procedure: (§1) Hepatocytes were isolated from Sprague-Dawley male rats (190-240 g) by liver perfusion. […] After overnight incubation, the medium was removed and 2.5 ml of fresh medium containing the test substances was added. The dishes were incubated for 24 h at 37° C. in a 5% CO2/air incubator. Cell lysates for the RNA extraction were obtained by adding 400 μl of RNA lysis buffer (RA-1 with 1% v/v β-mercaptoethanol) to the cells and vigorously mixed (vortex). Total RNA was extracted from the cell lysates according manufacturer's instructions (Nucleospin RNA2 kit, Macherey-Nagel, Düren, Germany) with minor changes: 20 min of DNASE treatment and 60 μl of elution volume. Total RNAs were quantified using Ribogren kit (Molecular probes) and the quality was evaluated by capillary electrophoresis using Bionalyzer (Agilent). Reverse transcription reactions were performed with the Multiscribe reverse transcriptase enzyme in the presence of random hexamers primers (Reverse Transcription Reagent from Applied Biosystems). Gene expression quantification was performed using pre-designed TaqMan probes (Applied Biosystems). Each qPCR reaction was done in technical duplicates on 50 ng of cDNA. The arithmetic mean of two housekeeping genes (GAPDH and β-Actin) was used for normalization. The mRNA gene expression calculations are based on the ΔΔCt method: […] [table]

[1] = test system: NAD(P)H dehydrogenase quinone (Nqo1); assay: mRNA expression in hepatocytes (qPCR): NAD(P)H dehydrogenase quinone; type: cell-based; settings: rat hepatocytes, 24 h, dose range (FIG. 5)
Procedure: as §1

[2] = test system: Glutamate cysteine ligase, catalytic subunit (Gclc); assay: mRNA expression in hepatocytes (qPCR): glutamate cysteine ligase catalytic subunit; type: cell-based; settings: rat hepatocytes, 24 h, dose range (FIG. 5)
Procedure: as §1

[3] = test system: Glutathione-S-transferase, pi 1 (Gstp1); assay: mRNA expression in hepatocytes (qPCR): glutathione-S-transferase; type: cell-based; settings: rat hepatocytes, 24 h, dose range (FIG. 5)
Procedure: as §1

[4] = test system: UDP-glucuronosyltransferase (UGT); assay: mRNA expression in hepatocytes (qPCR): UDP-glucuronosyltransferase; type: cell-based; settings: rat hepatocytes, 24 h, dose range (FIG. 5)
Procedure: as §1

[5] = test system: Glutathione peroxidase 1 (Gpx1); assay: mRNA expression in hepatocytes (qPCR): glutathione peroxidase 1; type: cell-based; settings: rat hepatocytes, 24 h, dose range (FIG. 5)
Procedure: as §1

[6] = test system: Glutathione peroxidase 2 (Gpx2); assay: mRNA expression in hepatocytes (qPCR): glutathione peroxidase 2; type: cell-based; settings: rat hepatocytes, 24 h, dose range (FIG. 5)
Procedure: as §1

[7] = test system: Glutathione reductase (Gsr); assay: mRNA expression in hepatocytes (qPCR): glutathione reductase; type: cell-based, rat; settings: liver cells (hepatocytes)
Procedure: as §1

hepatocytes = assay: Hepatocyte viability (LDH measurement); type: cell-based; settings: rat hepatocytes, 24 h
Procedure: Hepatocytes were isolated from Sprague-Dawley male rats (190-240 g) by liver perfusion. Cells were seeded at 2500000 cells/dish (6 cm) in 2.5 ml of Williams'E medium supplemented with 2 mM L-glutamine, 10 mM Hepes (Sigma), 1% ITS+, 1% Penicillin/Streptomycin (Sigma) and 25 nM Dexamethasone (Sigma). After overnight incubation, the medium was removed and 2.5 ml of fresh medium containing the test substances was added. The dishes were incubated for 24 h at 37° C. in a 5% CO2/air incubator.
At the end of the incubation, the cell supernatants were harvested for LDH (lactate dehydrogenase) measurement, which is an indicator of cell viability. Cells were washed once with 2.5 ml of cold PBS 1× then detached from the Petri dishes by scraping. Cells were then transferred to 1.5 ml Eppendorf tubes which were centrifuged for 1 min at 4° C. at 7000 g.

NF-κB = NF-κB activity in HT-29 clone 34 cells (SEAP reporter and IL-8); type: cell-based, human
Procedure: Two in-vitro systems were used: human colonic cells (HT-29 clone 34) and human monocytes/macrophages (THP-1 blue cells). The human colonic adenocarcinoma HT-29 clone 34 cell line (passage 42-50) are adherent cells stably transfected with a NF-κB/SEAP reporter plasmid. They were cultured in DMEM high glucose (4.5 g/L) (Invitrogen) containing 1% of stable L-glutamine and supplemented with 10% of heat inactivated (one hour at 56° C.) Foetal Calf Serum (FCS) (Bioconcept, Allschwil, Switzerland), 1% of Penicillin/Streptomycin (Sigma) and 500 μg/ml of Geneticin (PAA, Pasching, Austria) at 37° C. in a 5% CO2/air incubator. Culture medium was renewed every two days until the cell monolayer reached ˜90% confluence. Cells were sub-cultured using 1× Trypsin/EDTA (Sigma). 10000 cells/well were seeded in 200 μl of culture medium in flat bottom white border 96 well plates (Greiner Bio One, Kremsmuenster, Austria). […] Cell culture supernatants were then collected for measurement of NF-κB activity (determination of secreted alkaline phosphatase and IL-8 production) using Phosphalight (Applied Biosystems) and IL-8 singleplex (Meso Scale, Gaithersburg, Md.) kits, respectively.

HT-29 clone 34 cells = assay: HT-29 clone 34 cell viability (ATP, Cell Titer-Glo); type: cell-based, human
Procedure: 10000 cells/well were seeded in 200 μl of culture medium in flat bottom white border 96 well plates (Greiner Bio One, Kremsmuenster, Austria). […] 20 μl of experimental medium containing (or not) LPS 055:B5 or rhTNF-α (100 and 10 ng/ml final, respectively) was added and the plates were incubated for 24 hours at 37° C. in a 5% CO2/air incubator.
Cell viability was determined by measuring ATP using Cell Titer-Glo kit (Promega). Briefly, remaining adherent HT-29 clone 34 cells were incubated for 10 min at room temperature under horizontal shaking (250 rpm) with 120 μl of Cell Titer-Glo reagent (pre-diluted twice in 1×PBS) and the luminescence was measured using Polarstar microplate reader (BMG, Offenburg, Germany) for 1000 ms with a gain value set to 3500.

THP-1 blue cells = assay: THP-1 blue cell viability (Cell Titer-Glo); type: cell-based, human
Procedure: 200000 cells/well were seeded in 100 μl of culture medium in 96 well flat bottom transparent plates. […] 20 μl of culture media containing (or not) LPS 055:B5 (Sigma) (100 ng/ml final) was added and the plates were incubated for 16 hours at 37° C. in a 5% CO2/air incubator.
Cell culture supernatants were carefully transferred to 96 well-plates for NF-κB activity measurement which is proportional to the level of secreted alkaline phosphatase. Briefly, 100 μl of supernatants were mixed with 150 μl of QuantiBlue (Invivogen) in a 96 well-plates incubated for 3 h at 37° C. before OD measurements at 620 nm with Sunrise microplate reader (Tecan, Mannedorf, Switzerland). Cell viability was determined using Cell Titer-Glo kit as described above.

Question: Which results are given for `CC(=O)/C=C/C(=O)O` [4-oxo-2-pentenoic acid]?
Answer: Nrf2 activation (Nrf2): strongly activate Nrf2 in a dose dependent manner; doses at which viability of AREc32 cells was not affected (AREc32 cells): lower than 70 μM; mRNA expression of heme oxygenase 1 (Heme oxygenase 1 (HO-1)): increased; mRNA expression of NAD(P)H dehydrogenase quinone [1]: increased; mRNA expression of glutamate cysteine ligase catalytic subunit [2]: increased; mRNA expression of glutathione-S-transferase [3]: increased; mRNA expression of UDP-glucuronosyltransferase (UGT) [4]: increased; mRNA expression of glutathione peroxidase 1 [5]: not affected; mRNA expression of glutathione peroxidase 2 [6]: not affected; gene expression of glutathione reductase [7]: activated gene expression; cell viability (LDH measurements) (hepatocytes): not affected; dose giving the best inhibition of NF-κB activity (SEAP and IL-8) (NF-κB; HT-29 clone 34 cells stimulated with LPS): 50 µM; inhibition of NF-κB activity (SEAP and IL-8 secretion) (NF-κB; HT-29 clone 34 cells stimulated with LPS (100 ng/ml), 4 h pre-incubation, 24 h): inhibits NF-κB activity in a dose dependent manner; NF-κB activity (SEAP or IL-8) in the absence of LPS (NF-κB; HT-29 clone 34 cells, no LPS, doses tested 3 to 400 μM): no NF-κB activity was observed; doses showing a decrease in cell viability (HT-29 clone 34 cells): > 50 µM; doses toxic to cells (THP-1 blue cells): higher than 75 μM
